Test results published in patent US20070072815A1, “Methods and kits to increase the efficiency of oligonucleotide-directed nucleic acid sequence alteration” (priority 2004, published 2007).
Entries after “also recorded” stand apart in the source; their conditions may differ.

Assays:
[1] = test system: mutant eGFP gene in DLD-1-1 cells; assay: eGFP gene correction (oligonucleotide-directed sequence alteration) in DLD-1-1 cells, FACS readout; type: cell-based; details: for effect on correction when added after electroporation: recovery period, AraC 2-48 hrs, aphidicolin 6 μM at 2, 6 and 24 hrs
Description: Cell line and culture conditions: DLD-1 cells are obtained from ATCC (American Type Cell Culture, Manassas, Va.). DLD-1 integrated clone 1 (DLD-1-1) is obtained by integration of the vector pEGFP-N3 containing a single point mutation (TAG) in the eGFP gene, as described in copending U.S. patent application Ser. No. 10/986,418, filed Nov. 10, 2004 (“Mammalian Cell Lines for Detecting, Monitoring, and Optimizing Oligonucleotide-Mediated Chromosomal Sequence Alteration”). Cells are grown in RPMI 1640 medium with 2 mM glutamine, 4.5 g/L glucose, 10 mM HEPES, 1 mM sodium pyruvate and supplemented with 10% FBS. Cells are maintained at 5% CO2, 37° C. and under selection in 200 μg/ml G418 (Gibco, Invitrogen Co., Carlsbad, Calif.).
eGFP gene correction: Cells grown in complete medium supplemented with 10% FBS are trypsinized and harvested by centrifugation. The cell pellet is resuspended in serum-free medium at a density of 1×10^6 cells/100 μl and transferred to a 4 mm gap cuvette (Fisher Scientific, Pittsburgh, Pa.). The oligonucleotide is then added at a concentration of 4 μM and the cells are electroporated (LV, 250V, 13 msec, 2 pulses, 1 second interval) using a BTX ECM830 apparatus (BTX, Holliston, Mass.). The cells are then transferred to a 60 mm dish containing fresh medium supplemented with 10% FBS and incubated for 48 hrs at 37° C. before harvesting for FACS analysis.
The percentage of converted cells in a whole population is then calculated by CellQuest™ (Becton Dickinson) and GFP/PI programs. The correction efficiency is determined by dividing the number of eGFP positive cells by the number of cells analyzed in each experiment (usually 50,000 cells). Each clone is tested three times to determine the standard deviation of the correction efficiency, with standard deviation calculated using Microsoft Excel.
The experimental strategy involves the introduction of oligonucleotides into DLD-1-clone 1 cells by electroporation followed by phenotypic readout of the corrected eGFP gene, 48 hours later. The correcting oligonucleotide (EGFP3S/72NT) is 72 bases in length (72-mer), complementary to the non-transcribed strand of the mutant eGFP gene but designed to create a single mismatch in the third base of codon 67 (see FIG. 1A). It directs conversion of a TAG→TAC codon which enables phenotypic expression of eGFP, which can be detected by FACS. FIG. 1B outlines the sequence of the target gene, the 72-mer and a nonspecific 74-mer used as a control.
Oligonucleotide-Directed Sequence Alteration: The resulting synchronized populations of cells, and asynchronous controls, are grown in complete medium supplemented with 10% FBS and trypsinzed and harvested by centrifugation at 1500 rpm for 5 minutes. The cell pellet is resuspended in fresh serum-free medium at a density of 2×10^6 cells/100 μl. The entire cell suspension is mixed with 20 μg of EGFP/72NT and transferred into a 4 mm gap cuvette (Fisher Scientific, Pittsburgh, Pa., USA) followed by electroporation with two 250V pulses, each 13 ms in duration, with one second between pulses, unipolar.
Cells are incubated at room temperature for 30 min. […] Frequency of converted cells are calculated by CellQuest™ and GFP/PI programs.
Double Thymidine Block: Cells are synchronized in G1 or at the G1/S border by a double thymidine block. Twenty-four hours prior to the addition of any agent (HU, etc.), cells are plated at a density of 0.5×10^6 cells per 100 mm dish, followed by incubation in 2 mM thymidine (Sigma) for 16 hrs, washed and released in fresh medium for 10 hrs, then incubated in 2 mM thymidine for an additional 15 hrs.
FACS is then used to analyze 50,000 cells from each population to determine the percentage of cells expressing functional eGFP, as described in Example 1.

DLD-1-1 cells [2] = assay: Cell cycle analysis (DNA content by FACS), cells in S phase; type: cell-based
Description: (§1) For cell cycle analysis, 1×10^6 cells are plated 24 hrs before the treatment with drugs and after 24 hrs of treatment, cells are trypsinized, resuspended in 300 μl cold PBS and fixed by adding 700 μl cold ethanol. Cells are then resuspended in 1 ml of PBS containing 500 µg/ml RNaseA and […] propidium iodide and analyzed for DNA content.
The effect of cell cycle on the efficiency of ODSA is assessed by synchronizing a population of DLD-1-1 cells with mimosine, which arrests cells in early S phase, and serum starvation. Cells are seeded at a density of 0.8×10^6 per 100 mm dish, attached for 20 hours and then cultured in RMPI-1640 medium containing 0.2% fetal bovine serum (FBS). These cells are grown for 48 hours followed by treatment with 0.1 mM mimosine (Sigma, St. Louis, Mo., USA) for 20 hours. Cell are washed twice with PBS and released at various times into fresh medium complemented with 10% FBS before electroporation. Cells are rinsed once with PBS, trypsinized and harvested by centrifugation and resuspended in PBS containing 10 μg/ml propidium iodide, 0.03% Triton-100 and 1 mg/ml RNase. Cells are incubated at room temperature for 1 hour before the measurement of DNA content by FACSCalibur™ flow cytometer. The percentage of cells at various stages of the cell cycle is determined by ModFit L™ software (Verity Software House, Inc., Topsham, Me., USA).
(§2) The resulting cells are then either analyzed by FACS, or the percentage of cells in S phase is determined by BrdU incorporation. FIG. 8 presents the results of both sets of experiments.

DLD-1-1 cells [3] = assay: BrdU incorporation (actively replicating forks); type: cell-based; details: for BrdU uptake (cells actively incorporating DNA bases): 24 hour treatment, 500 μM ddC, ddI or AraC (FIG. 17B)
Description: as §1, §2
As stated above, the lack of stimulation observed in cells treated with AraC could be explained by the reduced number of cells passing through S phase or the absence of actively replicating forks. If true, we might predict that a rise in the gene repair frequency would appear if the cells are released from the AraC block and replication forks are allowed to restart prior to the electroporation of the oligonucleotide. We test this prediction by treating the cells with AraC for 24 hrs and then releasing them by washing out the drug at specific times. We measure the level of BrdU incorporation at the time of electroporation and evaluate the frequency of correction 48 hrs later.

[4] = test system: α-galactosidase A (GLA) activity in Fabry's cell line DMN-1; assay: GLA activity in Fabry's cells after ODSA; type: cell-based, human
Text: Cell line DMN-1, a human fibroblast cell line derived from a human patient with Fabry's disease, is obtained from the National Institutes of Health (NIH). These cells are used to measure the efficiency of correction of a mutant allele of α-galactosidase A (GLA) using methods of the present invention. The specific disease-causing mutation in the Fabry's cell line used herein is A143P, caused by a G→C mutation in the gene. See Branton et al., Medicine (Baltimore) (2002) 81(2): 122-38.
All four oligonucleotides are used to effect ODSA substantially as described in Example 1, with the exception that cells are transfected with oligonucleotides, rather than electroporated. Oligos are added at 5 μg, 10 μg or 30 μg per reaction. After ODSA is performed, cells are cultured and assayed for GLA activity according to the method of Brady, as described in Medin et al., Proc. Natl. Acad. Sci. (USA) (1996) 93:7917-22, the disclosure of which is incorporated herein by reference in its entirety. The GLA activity is used as a measure of gene correction by comparing the activities in treated versus untreated cultures. The correction efficiency is subsequently confirmed by sequencing of the locus of mutation in a number of treated cells.
[…] Unlike the experiments involving correction of eGFP in DLD-1-1 cells described in Example 1, however, certain of the agents (VPA, caffeine, TSA) in the experiments in this example are not added before transfection, but are instead added only after transfection, during the recovery period.
The means of introducing oligonucleotide into the target cells also differs from previous examples, with transfection in the presence of the transfection enhancing agent FuGENE™ 6 (FG) (Roche Diagnostics Corp., Indianapolis, Ind., USA) being used rather than electroporation. Each transfection reaction includes 100 μl of target cells and 12 μl of FG unless otherwise indicated, despite the fact that FG is not explicitly listed for each datapoint in the relevant figures. Otherwise the procedures used in the DLD-1-1 experiments and the Fabry's experiments are similar.
The results of a further series of experiments are shown at FIG. 15D, where the data are presented as GLA activity as nanomolar (nM) concentration of the product of the GLA assay generated per hour per unit protein concentration (as are the data in FIGS. D and E).

[5] = 24 hour treatment, 500 μM ddC, ddI or AraC (FIG. 17A)
[6] = 2-5 μM VPA in the recovery phase
[7] = serum starvation + mimosine, 8 hours after release

## C[C@@]1(CO)[C@H](O)CC[C@@]2(C)[C@H]1CC[C@H]1C[C@@H]3C[C@@]12CC[C@]3(O)CO [Aphidicolin, aphidicolin]
[1]
  effect on correction when added after electroporation: low level of correction

## Nc1ccn([C@@H]2O[C@H](CO)[C@@H](O)[C@@H]2O)c(=O)n1 [AraC, 1-β-D-arabinofuransylcytosine]
[1]; AraC 5 μM to 250 μM, 24 hrs before electroporation
  effect on correction levels: no enhancement in correction levels; also recorded: significantly insignificant effect
[1]; AraC 24 hrs, then washed out before electroporation
  time post release at which gene repair activity reaches maximal level: 8 h
[1]
  effect on correction when added after electroporation: correction levels drop substantially
DLD-1-1 cells [2]; [5]
  cells in S phase: 26%
DLD-1-1 cells [2]; AraC at 20 μM and 250 μM
  reduction in S phase cells: 9%
DLD-1-1 cells [3]
  BrdU uptake (cells actively incorporating DNA bases): essentially zero
DLD-1-1 cells [3]; AraC 24 hrs, then washed out
  time after release at which elevation in BrdU incorporation is observed: ≤ 2 h

## CC[C@@]1(O)C(=O)OCc2c1cc1n(c2=O)Cc2cc3ccccc3nc2-1 [CPT, camptothecin]
[1]; CPT pretreatment at 30-100 nM
  effect on correction efficiency: triples correction efficiency
[4]; 7.5 nM CPT during recovery
  GLA activity versus no treatment control: approximately six-fold
[4]; 7.5 nM CPT during recovery, 49T/gg
  GLA activity: 26.84 nM product per hour per unit p
[4]; CPT 7.5 nM (FIG. 15D summary)
  effect on GLA activity: more than doubles GLA activity

## CC(/C=C/C(=O)NO)=C\[C@@H](C)C(=O)c1ccc(N(C)C)cc1 [TSA, trichostatin A]
[4]; synchronized cells, 500 μM ddC, 4 mM caffeine or 100 ng/ml TSA during recovery period
  effect on ddC-enhanced GLA activity: eliminate the ability of 500 μM ddC to enhance GLA activity

## COc1cc([C@@H]2c3cc4c(cc3[C@@H](O[C@@H]3O[C@@H]5CO[C@@H](C)O[C@H]5[C@H](O)[C@H]3O)[C@H]3COC(=O)[C@H]23)OCO4)cc(OC)c1O [VP16, 4′-demethylepipodophyllotoxin-9-(4,6-O-ethylidene-beta-D-glucopyranoside)]
DLD-1-1 cells [2]; 24 hours, 1 mM HU or 3 μM VP16, FACS analysis
  cells in S-phase: 56%
DLD-1-1 cells [3]; 24 hours, 1 mM HU or 3 μM VP16
  percentage of cells in S phase by BrdU: 56%

## CCCC(CCC)C(=O)O [VPA, valproic acid]
[4]; 5 μM VPA during recovery period
  GLA activity versus untreated cells: over 20 fold
[4]; 5 μM VPA during recovery period after transfection with 49T/gg
  GLA activity: 98.71 nM product per hour per unit p
[4]; [6]
  GLA activity over untreated cells: 25 fold
  GLA activity versus cells treated identically without VPA: more than eight-fold

## O=c1[nH]cnc2c1ncn2[C@H]1CC[C@@H](CO)O1 [ddI, dideoxyinosine]
[1]; various dosages of ddI
  effect on gene correction: no significant increase in gene correction; also recorded: statistically insignificant effect
DLD-1-1 cells [2]; [5]
  cells in S phase: does not show an increase in the number of cells in S phase
DLD-1-1 cells [3]
  BrdU uptake (cells actively incorporating DNA bases): no difference from non-treated cells

## NC(Cn1ccc(=O)c(O)c1)C(=O)O (stereo not drawn) [mimosine]
[1]; [7]
  increase of correction efficiency versus asynchronous cells: 2.5 fold
DLD-1-1 cells [2]; serum starvation + 0.1 mM mimosine, 8 hours after release
  cells in S phase: 86%
DLD-1-1 cells [2]; [7]
  increase of proportion of cells in S phase versus asynchronous cells: 2.5 fold

## COc1cc(C=O)ccc1O [vanillin]
[1]; 1 mM vanillin, before or after electroporation, with or without ddC
  effect on correction efficiency: no effect on correction efficiency; also recorded: does not inhibit gene repair activity
[1]; inhibitor added with ddC before electroporation (FIG. 20)
  effect on ddC-stimulated gene repair: statistically unchanged
